In one data set the target is T1, CYP1A2 (Homo sapiens, UniProt P05177).
T1 sequence (P05177 1-516): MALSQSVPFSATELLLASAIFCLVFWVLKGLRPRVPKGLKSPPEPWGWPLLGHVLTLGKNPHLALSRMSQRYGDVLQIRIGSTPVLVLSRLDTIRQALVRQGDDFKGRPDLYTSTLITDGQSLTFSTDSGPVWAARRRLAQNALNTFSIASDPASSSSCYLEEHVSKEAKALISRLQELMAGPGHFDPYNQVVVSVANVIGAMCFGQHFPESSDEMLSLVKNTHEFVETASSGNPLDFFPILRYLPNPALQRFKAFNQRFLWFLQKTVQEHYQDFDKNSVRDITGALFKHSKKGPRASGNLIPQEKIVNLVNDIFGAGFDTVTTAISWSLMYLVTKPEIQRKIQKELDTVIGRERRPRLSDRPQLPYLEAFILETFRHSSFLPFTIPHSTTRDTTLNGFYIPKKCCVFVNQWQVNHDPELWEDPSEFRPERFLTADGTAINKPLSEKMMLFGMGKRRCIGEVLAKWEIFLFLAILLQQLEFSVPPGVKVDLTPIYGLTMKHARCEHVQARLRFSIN
Put plainly: CYP inhibition, CYP1A2. The class given is in vitro ADME. The method, then:
(§1) At pre-set time-points, blood concentration of JH4 was determined by LC-MS/MS analysis[22],[23]. Other chemicals were also tested using similar protocol. In vitro ADME studies (plasma protein binding, CYP inhibition, microsomal stability, plasma stability, and hERG inhibition) were performed by New Drug Development Center (Daegu, Korea) using standard protocols[24],[25].

A short description of data set [1]: Liver microsomal stability, rat. The class given is in vitro ADME. The conditions noted are these: liver microsomes, read-out: Liver microsomal stability (% remaining during 30min). The procedure:
For PK analysis, 5 mg/kg of JH4 in 10% DMSO, 5% […] solution were intravenously injected and 10 mg/kg of JH4 in 10% NMP and 90% PEG400 solution were orally delivered. At pre-set time-points, blood concentration of JH4 was determined by LC-MS/MS analysis[22],[23]. Other chemicals were also tested using similar protocol. In vitro ADME studies (plasma protein binding, CYP inhibition, microsomal stability, plasma stability, and hERG inhibition) were performed by New Drug Development Center (Daegu, Korea) using standard protocols[24],[25].
(Liver microsomes are a subcellular fraction often used to study metabolism.)

Data set [2] in a line: Maximum tolerated dose study in Beagle dogs, escalated-dose oral administration. It is filed as in vivo. The conditions noted are these: both sexes, beagle, dog, in vivo; oral gavage, dose escalation. From the text: The protocol and procedures involving the care and use of animals in this study was reviewed and approved by IACUC of QuBEST BIO prior to conduct (Approval no.: QBSIACUC-A18142). During the study, the care and use of animals will be conducted in accordance with all applicable guidelines of Animal Welfare Act. Non-naive one male and one female Beagle dogs (~16–24 months old, original supplier: ORIENTBIO Co., Ltd, Korea) were selected from the stock colony and assigned for the study. The route of administration was the oral (by gavage) route, which is the anticipated clinical route of exposure. Test article formulations were administered once via oral gavage. The day of 1st dosing was designated as Day 1. Each dose was administered via a syringe attached with 12-french feeding tube. A dose volume of 5 ml/kg was used and individual dose volumes were based on the most recent body weight. Each dose was followed by a distilled water of 5 ml. Each animal was observed twice daily (a.m. and p.m.) for mortality and moribundity; findings were recorded as they were observed. Cage side observations were made for each animal once daily; abnormal findings were recorded. […] Body weights were measured prior to each dosing. […] Prior to dosing and ~24 h post each dose, blood was collected as the same method and frequency with hematology analysis using no anticoagulant and then serum was separated by centrifugation and stored at freezer until analyze (AU 400, Olympus, Japan; […] 744 Na^+/K^+/[…] Analyzer, SIEMENS, Germany). In terminal procedures, all surviving animals were returned to the stock colony without necropsy. Toxicity studies were performed by QuBEST BIO Co., Ltd (Yongin, Korea).
The objective of this study was to determine the maximum tolerated dose (MTD) of SLC-D011 following dose escalation by oral gavage to Beagle dogs.
The study group was detailed in Text Table 1.
Text Table 1. Study Group
Dose Level Dose Conc. No. of Animals†
Group Treatment (mg/kg) (mg/mL)
†: Animals were re-used for each dose with at least 4-day wash-out period.
The following parameters were evaluated in this study: mortality, clinical signs, body weights and clinical pathology parameters (hematology and serum biochemistry).
Mortality and Clinical Observations
All animals survived until end of the study. Test article-related clinical observations were limited to oily soft stool in the 100 mg/kg/day group animals and vomitus (frothy) and soft sto ol in the 400 […]
Clinical Pathology Parameters (Hematology and Serum Chemistry) […]
the 100 and 400 mg/kg group animals on approximately 24 hours post each dose, compared to pre […]
Based on the results of this study, the maximum tolerated dose (MTD) of SLC-D011 was considered to […]
Test article formulations were administered once via oral gavage. The day of 1st dosing was designated […]
Each dose was administered via a syringe attached with 12-french feeding tube. A dose volume of 5 mL/kg was used and individual dose volumes were based on the most recent body weight. Each dose was followed by a distilled water of 5 mL. […]
Each animal was observed twice daily (a.m. and p.m.) for mortality and moribundity; findings were recorded as they were observed. Cage side observations were made for each animal once daily; abnormal findings were recorded. Detailed observations were made for each animal once prior to treatment; abnormal findings (ranked/graded, if appropriate) or an indication the animal appears […]
Body weights were measured prior to each dosing. […]
Prior to each dosing and approximately 24 hours post each dose, blood samples for hematology examination were collected from the via cephalic vein into tubes with K2EDTA anticoagulant and […]
Parameters Unit Measurement Method
ⓐ RBC (Red blood cell count) 106/μL Electric Impedance […]
ⓒ HGB (Hemoglobin conc.) g/dL Cyanmethemoglobin […]

The target of the next data set is CYP2C9 (Homo sapiens, UniProt P11712). The data set can be described thus: CYP inhibition, CYP2C9. It is filed as in vitro ADME. Further details: unit not given here. The procedure:
as §1

Data set [3] in a line: Plasma protein binding, rat. The class given is in vitro ADME. The procedure: as §1
The subject of the next data set is HGPS patients. The conditions noted are these: trial without placebo; cited from earlier work.

The values that follow come from article PMC7782499, “Progerinin, an optimized progerin-lamin A binding inhibitor, ameliorates premature senescence phenotypes of Hutchinson-Gilford progeria syndrome” (Communications Biology, 2021).

CYP2C9, sequence (P11712 whole entry): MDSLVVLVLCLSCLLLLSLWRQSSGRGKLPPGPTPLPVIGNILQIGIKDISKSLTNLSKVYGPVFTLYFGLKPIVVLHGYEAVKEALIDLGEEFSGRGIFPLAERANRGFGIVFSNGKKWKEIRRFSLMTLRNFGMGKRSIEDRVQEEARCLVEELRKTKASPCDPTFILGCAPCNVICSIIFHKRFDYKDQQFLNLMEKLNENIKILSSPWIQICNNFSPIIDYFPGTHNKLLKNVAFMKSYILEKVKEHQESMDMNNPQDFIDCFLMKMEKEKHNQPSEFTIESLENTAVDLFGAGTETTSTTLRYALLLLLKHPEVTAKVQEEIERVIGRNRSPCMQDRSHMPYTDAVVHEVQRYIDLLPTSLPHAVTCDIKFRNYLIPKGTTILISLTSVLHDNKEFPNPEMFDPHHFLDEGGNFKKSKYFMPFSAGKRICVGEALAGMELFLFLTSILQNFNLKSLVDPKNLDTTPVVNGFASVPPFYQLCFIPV

One may read the share remaining as the share of the starting amount still present when the sample was taken. A word on the MTD: it is the highest dose tested that stayed within the study's limit of toxicity. By fraction unbound is commonly meant free concentration divided by total concentration. On to `CC1(C)Oc2cc3oc(=O)ccc3cc2C[C@@H]1OC/C=C/c1ccccc1` [SLC-D011], for which the CYP inhibition at CYP1A2 was 81.6; on CYP2C9, 78.4. Also, in data set [1], the amount remaining at 0.5 h is 17.4%. In data set [2], this compound returned an MTD of more than 400 mg/kg. The compound also gave a fraction unbound in data set [3] of 0.002.

In the case of `NC(=O)N1CCC(CC(=O)N2CCC([C@H]3c4ncc(Br)cc4CCc4cc(Cl)cc(Br)c43)CC2)CC1` [lonafarnib, reference compound], the “Extension of life span” value with HGPS patients is ~ 2 years.
